Data reported in patent US10253041B2, “7-phenylethylamino-4H-pyrimido[4,5-d][1,3]oxazin-2-one compounds and their use as mutant IDH1 inhibitors” (Eli Lilly and Company, priority 2015, dated 2019).
Where a name gives a salt, the structure may show the parent alone. Read-outs that look alike come from different tables or passages of the source.

What was measured:
IDH1/R132H = target: T1, IDH1/R132H (Homo sapiens, UniProt O75874, R132H); test: Biochemical assay for IDH1 R132H mutant enzyme (2HG by RapidFire MS); conditions: mean ± standard deviation of the mean; 90 minutes reaction
T1 construct: His-tag (N); made in house; host or cells: E. coli
T1 sequence (O75874 whole entry R132H): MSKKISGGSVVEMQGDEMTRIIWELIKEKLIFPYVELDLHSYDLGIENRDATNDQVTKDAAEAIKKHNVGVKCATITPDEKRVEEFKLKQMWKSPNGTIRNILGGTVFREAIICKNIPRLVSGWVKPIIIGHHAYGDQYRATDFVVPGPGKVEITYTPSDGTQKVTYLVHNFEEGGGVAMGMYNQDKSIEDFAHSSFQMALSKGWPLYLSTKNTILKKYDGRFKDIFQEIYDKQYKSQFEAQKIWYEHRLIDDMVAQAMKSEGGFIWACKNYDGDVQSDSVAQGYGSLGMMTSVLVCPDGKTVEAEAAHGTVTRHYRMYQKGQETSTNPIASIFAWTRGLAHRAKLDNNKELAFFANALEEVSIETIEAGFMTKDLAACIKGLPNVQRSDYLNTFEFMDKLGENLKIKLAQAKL
Experimental: (§1) IDH1-R132H, IDH1-R132C, IDH2-R172K and IDH2-R140Q mutant enzymes catalyze the conversion of αKG to 2HG. 2HG is analyzed using in-line solid phase extraction and mass spectrometry. This analysis is carried out in a RapidFire® instrument coupled to a 6460 triple quadrupole mass spectrometer (G6460A Agilent).
(§2) IDH1 mutant (R132H and R132C) and IDH2 mutant (R140Q and R172K) proteins containing N-terminal His-tag are expressed in E. coli and purified using nickel affinity chromatography. The enzyme assays are carried out in V-bottom 96 well polypropylene plates containing 100 mM Tris-HCl buffer, 1 mM DTT, 0.005% TRITON™ X-100, 120 mM NaCl. For IDH1 R132H, α-ketoglutarate, NADPH and MnCl2 are included at final concentrations of 300 μM, 2.5 μM and 300 μM respectively. For IDH1 R132C, α-ketoglutarate, NADPH and MnCl2 are included at final concentrations of 100 μM, 10 μM and 100 μM respectively. For IDH2 R172K, α-ketoglutarate, NADPH and MnCl2 are included at final concentrations of 150 μM, 10 μM and 150 μM respectively. For IDH2 R140Q, α-ketoglutarate, NADPH and MnCl2 are included at final concentrations of 3000 μM, 10 μM and 100 μM respectively. Final pH=7.0. Test compound dissolved in DMSO stock is diluted in the reaction mix at a final DMSO concentration of 4%. Compounds are tested in dose-response format. The assay is started by addition of enzyme. Enzymes are used at the following final concentrations: IDH1 R132H, 2 nM; IDH1 R132C, 0.5 nM; IDH2 R172K, 1.2 nM; IDH2 R140Q, 1.2 nM. After 90 minutes the reaction is quenched by adding ACN (50:50) containing 3-hydroxy-1,5-pentanedioic-2,2,3,4,4-d5 acid (5d5-3HG) as an internal standard for mass spectrometry analysis and quantitation of reaction product. 2-Hydroxyglutarate (2HG) in quenched samples is separated using strong anionic exchange column chromatography (Phenomenex Strata-X-A SecurityGuard) and analyzed by mass spectrometry in a 6460 triple quadrupole mass spectrometer (G6460A Agilent). The 2HG signal detected is transformed into an analyte concentration using a calibration curve generated using known 2HG concentrations. […] IC50 values are obtained from the individual % inhibition values at different compound concentrations using a 4-parameter equation. These calculations are carried out using Activity Base (IDBS) or Screener (Genedata) data analysis programs.

IDH1/R132C = target: T2, IDH1/R132C (Homo sapiens, UniProt O75874, R132C); test: Biochemical assay for IDH1 R132C mutant enzyme (2HG by RapidFire MS); conditions: mean ± standard deviation of the mean; 90 minutes reaction
T2 construct: His-tag (N); made in house; host or cells: E. coli
T2 sequence (O75874 whole entry R132C): as the sequence (O75874 whole entry R132H) above, with H132C counted along it
Experimental: as §1, §2

[1] = system: IDH1 mutant R132C in fibrosarcoma cell line HT1080; test: HT1080 cell assay (intracellular 2HG and αKG); format: cell-based; conditions: Homo sapiens, 1 hour + 18 hours incubation
Experimental: (§3) To test the cellular inhibition of IDH1 mutant R132C, the fibrosarcoma cell line HT1080 (purchased from ATCC) is used. For testing cell-based inhibition of the R132H mutation, the U87MG glioma cell line (ATCC) was stably transfected with a DNA construct expressing the R132H mutant enzyme.
Fifteen thousand cells are plated in poly-D-lys coated 96 well plates (15,000 cells/well) 18-24 hours prior to treatment with compounds. Four hours prior to compound treatment, cells are glutamine-starved by removing normal media and replacing with glutamine-free media. Following starvation, cells are then treated with different concentrations of test compounds (20 μM to 1 nM) dissolved in glutamine free media containing DMSO at a final concentration of 0.2%. The initial compound incubation is for 1 hour at 37° C./5% CO2. After 1 hour, glutamine is added to a final 2 mM concentration and the treated cells are then incubated for a further 18 hours at 37° C./5% CO2. Following the 18 hour incubation, intracellular 2HG and αKG are analyzed in cell lysates. Lysates are prepared following removal of media and addition of buffer containing 25 mM Tris-HCl pH 7.5, 150 mM NaCl, 1 mM EDTA, 1 mM EGTA/1% Triton-X 100 to the cells. An aliquot of lysate is added to a mix of d6-αKG and d5-3HG as internal standards and the mixture is treated with O-benzylhydroxylamine in the presence of N-(3-dimethylaminopropyl)-N′-ethylcarbodiimide hydrochloride (EDC) and pyridine. Analyte derivatives are then extracted with EtOAc, dried, and then reconstituted with 50% MeOH in H2O. Samples prepared as described are injected into the HPLC to separate 2HG and αKG derivatives (and corresponding internal standards) using a reverse phase chromatography in a C18 column. Analysis of the samples is carried out using a 6460 triple quadrupole mass spectrometer (G6460A Agilent). The 2HG and αKG signals detected are transformed into analyte concentration using the ratio of αKG/d6-αKG and the ratio of 2HG/d5-3HG that is extrapolated within a calibration curve. Percent inhibition for each individual sample is obtained after normalizing calculated 2HG or aKG concentration to maximum and minimum references obtained in the presence and in the absence of glutamine during cell treatment with compounds. IC50 values are obtained from individual % inhibition using a sigmoidal dose-response 4-parameter equation. These calculations are carried out automatically using Activity Base (IDBS) or Screener (Genedata) data analysis programs.

[2] = system: IDH1/R132H in U87MG glioma cells; test: U87MG/IDH1R132H cell assay (intracellular 2HG); format: cell-based; conditions: Homo sapiens, U-87 MG, 19 h, 1 hour + 18 hours incubation, read-out: U87MG (IDH1/R132H 2-hydroxyglutarate IC50)
Experimental: as §3
Cells are plated in poly-D-lys coated 96 well plates (12,000 cells/well) 18-24 hours previous to treatment with compounds. Four hours prior to compound treatment, cells are glutamine-starved by removing normal media and replacing with glutamine-free media. Following starvation, cells are then treated with different concentrations of test compounds (20 μM to 1 nM) dissolved in glutamine free media containing DMSO at a final concentration of 0.2%. The initial compound incubation is for 1 hour at 37° C./5% CO2. After 1 hour, glutamine is added to a final 2 mM concentration and the treated cells are then incubated for a further 18 hours at 37° C./5% CO2. Intracellular 2HG is analyzed in cell lysates obtained after media removal and treatment with lysis buffer (25 mM Tris-HCl pH 7.5, 150 mM NaCl, 1 mM EDTA, 1 mM EGTA/1% Triton-X 100). Cell lysates are conserved at −80° C. until processing. For analyte extraction, an aliquot of thawed lysate is transferred to a deep 96-well plate and treated with cold MeOH containing d5-3HG as an internal standard followed by chloroform and H2O (1:4:3:2). The upper phase is collected after separation and injected in HPLC to separate 2HG (and internal standard) using hydrophilic interaction (HILIC) chromatography coupled to MS/MS detection in a 6460 triple quadrupole mass spectrometer. Percent inhibition for each individual sample is obtained after normalizing calculated 2HG concentration to maximum and minimum references obtained in the presence and in the absence of glutamine during cell treatment with compounds. IC50 values are obtained from individual % inhibition using a sigmoidal dose-response 4-parameter equation. These calculations are carried out automatically using Activity Base (IDBS) or Screener (Genedata) data analysis programs.

[3] = HT-1080, 19 h, intracellular 2HG, read-out: HT1080 (R132C, 2-hydroxyglutarate) IC50
[4] = HT-1080, intracellular αKG, read-out: HT1080 (R132C, αKG) IC50

| Compound | IC50 (IDH1/R132H) | IC50 (IDH1/R132C) | IC50 [1, 3] | IC50 [1, 4] | IC50 [2] |
| --- | --- | --- | --- | --- | --- |
| C=CC(=O)N1CCN(c2ccc([C@H](C)Nc3ncc4c(n3)N(CC)C(=O)OC4)cc2)CC1 [Example 18, 1-Ethyl-7-[[(1S)-1-[4-(4-prop-2-enoylpiperazin-1-yl)phenyl]ethyl]amino]-4H-pyrimido[4,5-d][1,3]oxazin-2-one] | 211 nM | 192 nM | 380 ± 130 nM | > 20000 nM | 70.7 nM |
| C=CC(=O)N1CCN(Cc2ccc([C@H](C)Nc3ncc4c(n3)N(CC)C(=O)OC4)cc2)CC1 [Example 23, 1-Ethyl-7-[[(1S)-1-[4-[(4-prop-2-enoylpiperazin-1-yl)methyl]phenyl]ethyl]amino]-4H-pyrimido[4,5-d][1,3]oxazin-2-one 4-hydroxybenzoic acid salt] | 188 ± 48 nM | 234 ± 67 nM | 32.1 ± 13.6 nM | > 20000 nM | 9.03 ± 0.75 nM |
